According to patent publication US6476039B1, “Ophthalmic composition” (R-Tech Ueno, Ltd., priority 1998, dated 2002):

Experiments:
Type in all cases: in vivo, rabbit
[1] = test system: rabbits with dry eye syndrome induced by trigeminal denervation; assay: Basal tear secretion in rabbits with dry eye syndrome induced by trigeminal denervation
Description: (§1) Twenty male Japanese albino rabbits [Std:JW/CSK] were used.
(§2) Urethane (ALDRICH, Lot No.069110Q) was intraperitoneally administered at the dose of 1 g/kg to rabbits of which hair at the head after anesthesia had been shaved.
(§3) After disinfection of the shaved area, midline incision of the skin was made from the frontal bone to the ear root, and the periosteum and the muscular tissue around the temporal bone and mandibular articular process were detached. After the detachment, a hole of 2×1.5 cm in size was made in the bone from the parietal medial region to the temporal region by using a bone drill (URAWA KOGYO Co., Ltd., MINITOR.C-130) under the surgical microscope (KONAN CAMERA R& I Inc., PMO-50). Then the dura was detached from the cranial bone while cotton was kept inserted between the temporal bone and the dura. After the detachment was made up to the cranial base, detachment was further made toward the medial border of the petrous part of temporal bone in the cranial cavity, to find the trigeminal nerve in the petrous part. Then the dura of about 1 to 2 mm on the nasal side of the semilunar ganglion was incised. After the incision, the two branches of nerve fascicle, i.e. the first branch of the trigeminal nerve (ocular nerve) and the second branch (maxillary nerve), were pulled laterally and cut with corneoscleral scissors. After confirmation of miosis of the ipsilateral eye immediately after the cut, the cotton kept inserted was removed, and the skin at the head was closed with suture. After the operation, an antibiotic (MYCILLIN SOL®: Meiji) was administered intramuscularly at the dose of 0.1 mL/kg.
(§4) The trigeminal denervation was made only on the left eye side, while the trigeminal denervation on the right eye side or sham operation was not made
(§5) Two-week acclimation period was allowed to pass after the trigeminal denervation.
(§6) [3-(4-Bromo-2-fluorobenzyl)-7-chloro-2,4-dioxo- 1,2,3,4-tetrahydroquinazolin- 1-yl]acetate, an active ingredient of this invention, having aldose reductase-inhibiting effect was used for preparation of 0.03% eye drop, 0.1% eye drop, and 0.3% eye drop, which were used as the test substances. The vehicle control was the base of the eye drops simply without the active ingredient.
(§7) From about 2 weeks after the trigeminal denervation, one of the above-mentioned drugs was instilled at the volume of 30 μL/eye four times a day for 2 consecutive weeks. Five eyes of each of the test substance groups and the control group were examined for the basal tear secretion and the keratoepithelial lesion as follows.
Before the start of instillation (Week 0), and 1 week and 2 weeks after instillation, the basal tear secretion was measured one hour after the second instillation on the day of examination.
Keratoconjunctiva was anesthetized by instillation of 4% lidocaine (Xylocaine® 4% for ophthalmology: Fujisawa Pharmaceutical Co., Ltd.), and the eye drop and the tear around the eyelid were wiped off about 5 minutes later.
When loss of keratoconjunctival esthesia was confirmed with the Cochet-Bonnet type esthesiometer, the edge of the Shirmer's test paper was kept inserted into the conjunctival sac for 5 minutes, and the length of the moistened part was read from the scale on the paper.
The basal tear secretion was expressed by the mean per minute calculated from the 4-minute-value obtained by subtraction of the first-1-minute-value from the 5-minute-value of the Shirmer's test, so that the volume of the tear considered to be retained in the conjunctival sac might be excluded.

[2] = test system: alloxan-induced diabetic rabbits; assay: Examination of corneal esthesia (Cochet-Bonnet esthesiometer) in alloxan-induced diabetic rabbits
Experimental: (§8) Alloxan monohydrate (Lot No. DLJ5619, M.W. 160.09 Wako Pure Chemical Industries, LTD.) of 80 mg/kg was dissolved in 2 mL of physiological saline, and the solution was administered once intravenously of male Japanese albino rabbits [Std: JW/CSK] (11-week-old) to induce diabetes.
(§9) Blood glucose was determined once a week on 4 times after administration of alloxan monohydrate: animals having always blood glucose of 300 mg/dL or more were used as diabetic animals in this Experiment.
(§10) [3-(4-Bromo-2-fluorobenzyl)-7-chloro-2,4-dioxo- 1,2,3,4-tetrahydroquinazolin- 1-yl]acetate, an active ingredient of this invention, having aldose reductase-inhibiting effect was used for preparation of a 0.3% eye drops, and the eye drops were used as the test substance. The vehicle control was the vehicle of the eye drops simply without the active ingredient.
At the time of intravenous administration of alloxan, the drug was instilled into both eyes at 30 μL/eye four times a day over 4 consecutive weeks. Sixteen eyes of 8 animals in each of the test substance group and the vehicle control group were subjected to the examination of corneal esthesia and the examination of tear secretion as follows.
One hour after the second instillation on the day of examination, each animal was fixed in a stainless steel fixator (SHIBATA GLASS WORKS). The central part, the most sensitive part, of the cornea was stimulated 10 times in rapid sequence with a pressure by applying at the right angle a 30 mm nylon thread (Toray Nylon Monofilament, Type 100, No.0.6, diameter φ: 0.027mm, cross section s: 0.0129) of the Cochet-Bonnet type esthesiometer (Handaya Co., Ltd.) so that the nylon thread might be bent only slightly (pressure: […], measured by Handaya), and the number of blink reflex was taken as the corneal esthesia value. The examination was performed before, 2 weeks after and 4 weeks after administration of alloxan.
In both examinations, the test substance group and the vehicle control group were compared with the Williams's test.

[3] = test system: normal (not diabetic) rabbits; assay: Repair of the wound of keratoepithelial detachment in normal rabbits; conditions: 0.2% eye drops, 30 μL/eye every 4 hours, area immediately after detachment = 100
Description: In the Experimental Example 1, the influence in rabbits with alloxan-induced diabetes was investigated, while the influence in normal (not diabetic) rabbits was investigated in this Example.
Ten-week-old male New Zealand White rabbits (weighing 2.07±0.11 kg: mean weight at the start of the experiment) were acclimation period for 7 days, while the animals were examined for the general signs including diarrhea and body weight, etc., and the anterior ocular segment was also observed. Only animals without any abnormality were used in the experiment.
Keratoepithelial detachment wounds were prepared as described in the Experimental Example 1.
The test substance was instilled every 4 hours after the keratoepithelial detachment (the first instillation was made immediately after preparation of the wound of keratoepithelial detachment).
Twelve hours after the keratoepithelial detachment, the area of the wound was measured, and its relative value was calculated by taking the area of the wound immediately after the keratoepithelial detachment as 100, and the relative value was used to assess the extent of repair. The area of the wound of keratoepithelial detachment was measured as described in the Experimental Example 1. […]

[4] = test system: alloxan-induced diabetic rabbits; assay: Repair of the wound of keratoepithelial detachment in alloxan-induced diabetic rabbits; conditions: 0.1% eye drop, 30 μL/eye every 4 hours, area immediately after detachment = 100, mean±S.E.
Experimental: Alloxan monohydrate (Lot No. DLJ5619, M.W. 160.09: Wako Pure Chemical Industries, LTD.) of 80 mg/kg was dissolved in 2 mL of physiological saline, and the solution was administered once intravenously of male Japanese albino rabbits [Std: JW/CSK] (11-week-old) to induce diabetes.
Blood glucose was determined weekly after administration of alloxan monohydrate: the mean blood glucose was increased from 142.2±4.7 mg/dL (mean±S.E.; The same is applicable hereinafter.) before administration to 522.5±13.7 mg/dL at 1 week, and this elevated level persisted thereafter. Animals with this alloxan-induced diabetes were used in the experiment. […]
The cornea was stained with fluorescein, and photographs of the anterior ocular segment were taken with the Medical Nikkor Lens attached with a yellow filter (Kodak WRATTEN No.12) and the front part of the flash attached with a blue filter (Kodak WRATTEN No.47). On the projected photographs magnified to the same degree, the stained area was measured with the planimeter. […]
Twelve hours after the keratoepithelial detachment, the area of the wound was measured. Then its relative value was calculated by taking the area of the wound immediately after the keratoepithelial detachment as 100. […]

[5] = test system: alloxan-induced diabetic rabbits; assay: Examination of tear secretion (Schirmer's test) in alloxan-induced diabetic rabbits; conditions: 1 minute
Experimental: as §8, §9, §10
At the time of intravenous administration of alloxan, the drug was instilled into both eyes at 30 μL/eye four times a day over 4 consecutive weeks. […]
One hour after the second instillation on the day of examination, each animal was fixed in a stainless steel fixator, and the edge of the Schirmer's test paper (SHOWA YAKUHIN KAKO, Co., Ltd., Lot No.70080) was inserted into the conjunctival sac to cover the ⅓ of the lower eyelid on the ear side. One minute after, the paper was removed, and the length of the moistened part was read from the scale on the paper. […]

[6] = test system: rabbits with dry eye syndrome induced by trigeminal denervation; assay: Keratoepithelial lesion score in rabbits with dry eye syndrome induced by trigeminal denervation
Description: as §1, §2, §3, §4, §5, §6, §7
Before the start of instillation (Week 0), and 1 week and 2 weeks after instillation, the lesion was evaluated one hour after the first instillation on the day of examination.
Each animal was placed in a stainless steel fixator, and given instillation of 50 μL of the mixture of 1% rose bengal and 1% fluorescein, followed by vital staining of the keratoconjunctival epithelium for evaluation of the extent of lesion according to the scoring system shown in Table 5.

[7] = after 4 weeks, 0.3% eye drops, 30 μL/eye four times a day
[8] = before alloxan (baseline), 0.3% eye drops group

O=C(O)Cn1c(=O)n(Cc2ccc(Br)cc2F)c(=O)c2ccc(Cl)cc21 [compound of the formula (II), [3-(4-bromo-2-fluorobenzyl)-7-chloro-2,4-dioxo-1,2,3,4-tetrahydroquinazolin-1-yl]acetate]
Basal tear secretion ([1]; 0.03% eye drop group, before instillation (baseline)): 0.38 ± 0.09 mm/minute
Basal tear secretion ([1]; 0.03% eye drop, 30 μL/eye four times a day, week 1): 0.92 ± 0.17 mm/minute
Basal tear secretion ([1]; 0.03% eye drop, 30 μL/eye four times a day, week 2): 1.02 ± 0.09 mm/minute
Basal tear secretion ([1]; 0.1% eye drop group, before instillation (baseline)): 0.38 ± 0.13 mm/minute
Basal tear secretion ([1]; 0.1% eye drop, 30 μL/eye four times a day, week 1): 1.24 ± 0.14 mm/minute
Basal tear secretion ([1]; 0.1% eye drop, 30 μL/eye four times a day, week 2): 1.12 ± 0.11 mm/minute
Basal tear secretion ([1]; 0.3% eye drop group, before instillation (baseline)): 0.34 ± 0.10 mm/minute
Basal tear secretion ([1]; 0.3% eye drop, 30 μL/eye four times a day, week 1): 1.24 ± 0.16 mm/minute
Basal tear secretion ([1]; 0.3% eye drop, 30 μL/eye four times a day, week 2): 1.20 ± 0.15 mm/minute
Corneal esthesia value (number of blink reflex on 10 stimulations) ([2]; after 2 weeks, 0.3% eye drops, 30 μL/eye four times a day): 5.3 ± 0.7 number of times
Corneal esthesia value (number of blink reflex on 10 stimulations) [2, 7]: 5.1 ± 0.6 number of times
Corneal esthesia value (number of blink reflex on 10 stimulations) [2, 8]: 5.6 ± 0.3 number of times
Relative area of wound of keratoepithelial detachment 12 hours after keratoepithelial detachment [3]: 80.8 ± 2.0 %
Relative area of wound of keratoepithelial detachment 12 hours after keratoepithelial detachment [4]: 89.0 ± 2.7 %
tear secretion (Schirmer's test) [5, 7]: 7.1 ± 0.4 mm
tear secretion (Schirmer's test) [5, 8]: 8.3 ± 0.6 mm
Keratoepithelial lesion ([6]; 0.03% eye drop group, before instillation (baseline), score 0-4 by stained area (Table 5)): 2.8 ± 0.4 score
Keratoepithelial lesion ([6]; 0.03% eye drop, four times a day, week 1, score 0-4 (Table 5)): 0.5 ± 0.4 score
Keratoepithelial lesion ([6]; 0.03% eye drop, four times a day, week 2, score 0-4 (Table 5)): 0.2 ± 0.1 score
Keratoepithelial lesion ([6]; 0.1% eye drop group, before instillation (baseline), score 0-4 (Table 5)): 3.0 ± 0.6 score
Keratoepithelial lesion ([6]; 0.1% eye drop, four times a day, week 1, score 0-4 (Table 5)): 0.4 ± 0.2 score
Keratoepithelial lesion ([6]; 0.1% eye drop, four times a day, week 2, score 0-4 (Table 5)): 0.4 ± 0.2 score
Keratoepithelial lesion ([6]; 0.3% eye drop group, before instillation (baseline), score 0-4 (Table 5)): 3.0 ± 0.5 score
Keratoepithelial lesion ([6]; 0.3% eye drop, four times a day, week 1, score 0-4 (Table 5)): 0.5 ± 0.4 score
Keratoepithelial lesion ([6]; 0.3% eye drop, four times a day, week 2, score 0-4 (Table 5)): 0.1 ± 0.1 score
